Experimental data reported in patent publication US20200038513A1, “MODULATORS OF FAK PROTEOLYSIS AND ASSOCIATED METHODS OF USE” (ARVINAS OPERATIONS, INC., priority 2018, published 2020).
Where two headings read alike, the source gives them in different places.

Assay: Pharmacokinetics of intraperitoneal or intravenous injection in CD1 mice
Format: in vivo
Settings: CD1 mice plasma; for concentration at 0.25 h / concentration at 0.5 h / concentration at 1 h / concentration at 2 h / concentration at 4 h / concentration at 0.033 h / concentration at 0.083 h: male, CD1, mouse, plasma
Protocol: The pharmacokinetics of exemplary compounds 103, 107, 100, 101, and 102 was examined for intraperitoneal and intravenous administration. The desired serial concentrations of working solutions were achieved by diluting stock solution (1 mg/mL in DMSO) of analyte with methanol. In particular, 20 μL of working solutions (1, 2, 5, 10, 50, 100, 500, 1000, 2000 ng/mL) were added to 20 μL of the blank CD1 mice plasma to achieve calibration standards of 1-2000 ng/mL (1, 2, 5, 10, 50, 100, 500, 1000, 2000 ng/mL) in a total volume of 40 μL. Dose of IV and IP were diluted by 1000 fold and 10000 with methanol, 20 μL of the diluted dose solutions were added to 20 μL of the blank CD1 mice plasma to achieve dose samples. Next, 40 μL standards and 40 μL dose samples were added to 20 μL of IS (100 ng/mL) and 200 μL of acetonitrile for precipitating protein respectively. Then the samples were vortexed for 30 seconds. After centrifugation at 4 degree Celsius, 4000 rpm for 15 minutes, the supernatant was diluted 3 times with water. 10 μL of the diluted supernatant was injected into the LC/MS/MS system for quantitative analysis.
Exemplary compounds 103, 107, 100, 101, and 102 were administered intravenously (5 second injection of 10% HP-b-CD and 40 mM sodium acetate and 40 mM NaCl in water, pH4.5) or intraperitoneally (5% EtOH and 5% Solutol HS15 in D5W(ESD-2)) to 6-8 week old male CD1 mice (3 mice per treatment group for a total of 12 mice) at the time points indicated below in Table 7. The mice had free access to food and water.
Dorsal metatarsal vein samples (30 μL), except that the final sample was acquired via a heart puncture, were taken from the mice at the same the administration time points as shown in Table 7.

[1] = iv, 1 mg/kg, IV 1.0 mg/kg, read-out: Conc. (ng/mL) Mouse 1
[2] = iv, 1 mg/kg, IV 1.0 mg/kg, read-out: Conc. (ng/mL) Mouse 2
[3] = iv, 1 mg/kg, IV 1.0 mg/kg, read-out: Conc. (ng/mL) Mouse 3
[4] = iv, 1 mg/kg, IV 1.0 mg/kg, read-out: Mean

SMILES: CN(c1cccc(CNc2nc(Nc3ccc(OCCCOCCC(=O)NCCOc4cccc5c4C(=O)N(C4CCC(=O)NC4=O)C5=O)cc3)ncc2C(F)(F)F)c1)S(C)(=O)=O (centres unmarked) [Compound 107]
- Conc. (ng/mL) Mouse 1 (IP 10 mg/kg, 8 h): BLOQ
- Conc. (ng/mL) Mouse 2 (IP 10 mg/kg, 8 h): BLOQ
- Conc. (ng/mL) Mouse 3 (IP 10 mg/kg, 8 h): BLOQ
- Conc. (ng/mL) Mouse 1 (IP 10 mg/kg, 24 h): BLOQ
- Conc. (ng/mL) Mouse 2 (IP 10 mg/kg, 24 h): BLOQ
- Conc. (ng/mL) Mouse 3 (IP 10 mg/kg, 24 h): BLOQ
- Conc. (ng/mL) Mouse 1 (IV 1.0 mg/kg, 0.25 h): BLOQ
- Conc. (ng/mL) Mouse 1 (IV 1.0 mg/kg, 0.5 h): BLOQ
- Conc. (ng/mL) Mouse 2 (IV 1.0 mg/kg, 0.5 h): BLOQ
- Conc. (ng/mL) Mouse 3 (IV 1.0 mg/kg, 0.5 h): BLOQ
- Conc. (ng/mL) Mouse 1 (IV 1.0 mg/kg, 1 h): BLOQ
- Conc. (ng/mL) Mouse 2 (IV 1.0 mg/kg, 1 h): BLOQ
- Conc. (ng/mL) Mouse 3 (IV 1.0 mg/kg, 1 h): BLOQ
- Conc. (ng/mL) Mouse 1 (IV 1.0 mg/kg, 2 h): BLOQ
- Conc. (ng/mL) Mouse 2 (IV 1.0 mg/kg, 2 h): BLOQ
- Conc. (ng/mL) Mouse 3 (IV 1.0 mg/kg, 2 h): BLOQ
- Conc. (ng/mL) Mouse 1 (IV 1.0 mg/kg, 4 h): BLOQ
- Conc. (ng/mL) Mouse 2 (IV 1.0 mg/kg, 4 h): BLOQ
- Conc. (ng/mL) Mouse 3 (IV 1.0 mg/kg, 4 h): BLOQ
- Conc. (ng/mL) Mouse 1 (IV 1.0 mg/kg, 8 h): BLOQ
- Conc. (ng/mL) Mouse 2 (IV 1.0 mg/kg, 8 h): BLOQ
- Conc. (ng/mL) Mouse 3 (IV 1.0 mg/kg, 8 h): BLOQ
- Conc. (ng/mL) Mouse 1 (IV 1.0 mg/kg, 24 h): BLOQ
- Conc. (ng/mL) Mouse 2 (IV 1.0 mg/kg, 24 h): BLOQ
- Conc. (ng/mL) Mouse 3 (IV 1.0 mg/kg, 24 h): BLOQ
- concentration at 0.25 h (ip, 10 mg/kg, IP 10 mg/kg, 0.25 h, read-out: Conc. (ng/mL) Mouse 1): 44.8 ng/mL
- concentration at 0.25 h (ip, 10 mg/kg, IP 10 mg/kg, 0.25 h, read-out: Conc. (ng/mL) Mouse 2): 42.6 ng/mL
- concentration at 0.25 h (ip, 10 mg/kg, IP 10 mg/kg, 0.25 h, read-out: Conc. (ng/mL) Mouse 3): 111 ng/mL
- concentration at 0.25 h (ip, 10 mg/kg, IP 10 mg/kg, 0.25 h, read-out: Mean): 66 ng/mL
- concentration at 0.5 h (ip, 10 mg/kg, IP 10 mg/kg, 0.5 h, read-out: Conc. (ng/mL) Mouse 1): 68.4 ng/mL
- concentration at 0.5 h (ip, 10 mg/kg, IP 10 mg/kg, 0.5 h, read-out: Conc. (ng/mL) Mouse 2): 41.9 ng/mL
- concentration at 0.5 h (ip, 10 mg/kg, IP 10 mg/kg, 0.5 h, read-out: Conc. (ng/mL) Mouse 3): 69.3 ng/mL
- concentration at 0.5 h (ip, 10 mg/kg, IP 10 mg/kg, 0.5 h, read-out: Mean): 59.9 ng/mL
- concentration at 1 h (ip, 10 mg/kg, IP 10 mg/kg, 1 h, read-out: Conc. (ng/mL) Mouse 1): 64.7 ng/mL
- concentration at 1 h (ip, 10 mg/kg, IP 10 mg/kg, 1 h, read-out: Conc. (ng/mL) Mouse 2): 54.2 ng/mL
- concentration at 1 h (ip, 10 mg/kg, IP 10 mg/kg, 1 h, read-out: Conc. (ng/mL) Mouse 3): 199 ng/mL
- concentration at 1 h (ip, 10 mg/kg, IP 10 mg/kg, 1 h, read-out: Mean): 106 ng/mL
- concentration at 2 h (ip, 10 mg/kg, IP 10 mg/kg, 2 h, read-out: Conc. (ng/mL) Mouse 1): 53.2 ng/mL
- concentration at 2 h (ip, 10 mg/kg, IP 10 mg/kg, 2 h, read-out: Conc. (ng/mL) Mouse 2): 38.1 ng/mL
- concentration at 2 h (ip, 10 mg/kg, IP 10 mg/kg, 2 h, read-out: Conc. (ng/mL) Mouse 3): 59.8 ng/mL
- concentration at 2 h (ip, 10 mg/kg, IP 10 mg/kg, 2 h, read-out: Mean): 50.4 ng/mL
- concentration at 4 h (ip, 10 mg/kg, IP 10 mg/kg, 4 h, read-out: Conc. (ng/mL) Mouse 1): 4.11 ng/mL
- concentration at 4 h (ip, 10 mg/kg, IP 10 mg/kg, 4 h, read-out: Conc. (ng/mL) Mouse 2): 14.9 ng/mL
- concentration at 4 h (ip, 10 mg/kg, IP 10 mg/kg, 4 h, read-out: Conc. (ng/mL) Mouse 3): 22.2 ng/mL
- concentration at 4 h (ip, 10 mg/kg, IP 10 mg/kg, 4 h, read-out: Mean): 13.7 ng/mL
- concentration at 0.033 h [1]: 31.4 ng/mL
- concentration at 0.033 h [2]: 31.6 ng/mL
- concentration at 0.033 h [3]: 34.3 ng/mL
- concentration at 0.033 h [4]: 32.4 ng/mL
- concentration at 0.083 h [1]: 8.44 ng/mL
- concentration at 0.083 h [2]: 9.65 ng/mL
- concentration at 0.083 h [3]: 9.61 ng/mL
- concentration at 0.083 h [4]: 9.23 ng/mL
- concentration at 0.25 h (iv, 1 mg/kg, IV 1.0 mg/kg, 0.25 h, read-out: Conc. (ng/mL) Mouse 2): 2.25 ng/mL
- concentration at 0.25 h (iv, 1 mg/kg, IV 1.0 mg/kg, 0.25 h, read-out: Conc. (ng/mL) Mouse 3): 1.73 ng/mL
- concentration at 0.25 h (iv, 1 mg/kg, IV 1.0 mg/kg, 0.25 h, read-out: Mean): 1.99 ng/mL
